What was measured:
EGFR del19 = EGFR del19 (Homo sapiens (Human), UniProt P00533, DEL746-750); test: HTRF inhibitory activity against EGFR mutant enzyme (EGFR del19); type: biochemical; details: recombinant enzyme, 37° C. for 2 hours
Procedure, shortened: (§1)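 IC50 was derived from 7 concentrations by HTRF: Eu-anti-pTyr and streptavidin-XL665 for 1 h at room temperature, with the 615/665 nm ratio read. The kinase reaction ran 2 h at 37 °C in Tris pH 7.5 buffer with ATP (stated 50 mM) and biotinylated peptide (0.5 mM). Enzyme was preincubated with compound before substrate was added.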

EGFR A763_Y764insFHEA = EGFR A763_Y764insFHEA (Homo sapiens (Human), UniProt P00533, INS763FHEA); test: HTRF inhibitory activity against EGFR mutant enzyme (EGFR A763_Y764insFHEA); type: biochemical; details: recombinant enzyme, 37° C. for 2 hours
Sequence of EGFR A763_Y764insFHEA (P00533 other isoform, or with tags, fused parts or gaps del 1-694/ins FHEA behind 763 limits assumed): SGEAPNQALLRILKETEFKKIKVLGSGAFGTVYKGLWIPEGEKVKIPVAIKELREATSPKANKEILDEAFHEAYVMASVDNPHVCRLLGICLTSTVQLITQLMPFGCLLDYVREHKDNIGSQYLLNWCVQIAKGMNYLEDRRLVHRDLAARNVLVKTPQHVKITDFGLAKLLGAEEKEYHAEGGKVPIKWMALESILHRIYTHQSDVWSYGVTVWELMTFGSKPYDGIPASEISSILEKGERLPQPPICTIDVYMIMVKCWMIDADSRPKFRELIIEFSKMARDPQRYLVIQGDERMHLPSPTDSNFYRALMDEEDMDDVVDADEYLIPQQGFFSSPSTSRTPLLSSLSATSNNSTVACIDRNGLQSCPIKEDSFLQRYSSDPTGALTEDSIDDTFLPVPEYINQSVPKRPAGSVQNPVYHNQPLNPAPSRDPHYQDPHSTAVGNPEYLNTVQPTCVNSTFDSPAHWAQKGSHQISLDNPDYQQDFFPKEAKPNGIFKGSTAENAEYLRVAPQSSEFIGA
Procedure, shortened: as §1

HER2 A775_G776insYVMA = HER2 A775_G776insYVMA (Homo sapiens (Human), UniProt P04626, INS775YVMA); test: HTRF inhibitory activity against HER2 mutant enzyme; type: biochemical; details: recombinant enzyme, 37° C. for 2 hours
Sequence of HER2 A775_G776insYVMA (P04626 other isoform, or with tags, fused parts or gaps del 1-675/ins YVMA behind 775 limits assumed): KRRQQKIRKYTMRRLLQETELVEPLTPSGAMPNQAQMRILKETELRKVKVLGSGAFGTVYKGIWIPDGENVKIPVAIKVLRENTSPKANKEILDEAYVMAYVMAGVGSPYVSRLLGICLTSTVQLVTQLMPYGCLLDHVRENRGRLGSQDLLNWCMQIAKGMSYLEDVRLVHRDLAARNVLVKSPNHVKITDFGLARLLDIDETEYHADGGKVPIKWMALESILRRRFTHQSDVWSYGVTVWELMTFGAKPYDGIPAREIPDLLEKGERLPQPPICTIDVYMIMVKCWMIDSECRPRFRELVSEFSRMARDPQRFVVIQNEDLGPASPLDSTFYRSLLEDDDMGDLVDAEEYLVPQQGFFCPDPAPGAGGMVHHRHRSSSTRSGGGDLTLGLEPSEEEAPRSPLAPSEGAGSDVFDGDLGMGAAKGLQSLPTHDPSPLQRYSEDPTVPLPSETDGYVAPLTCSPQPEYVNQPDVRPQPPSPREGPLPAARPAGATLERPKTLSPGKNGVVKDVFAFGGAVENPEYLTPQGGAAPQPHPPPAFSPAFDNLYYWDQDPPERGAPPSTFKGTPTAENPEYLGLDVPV
Procedure, shortened: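 Recombinant HER2 A775_G776insYVMA preincubated with compound, then […] and biotinylated peptide ([…]) added; 2 h at 37 °C in Tris-HCl pH 7.5 buffer with MgCl2, DTT. HTRF detection (Eu anti-phosphotyrosine/streptavidin-XL665); IC50 from 7 concentrations.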

[1] = system: Ba/F3 EGFR D770_N771insSVD; test: Growth inhibition of Ba/F3 EGFR mutant cells (CellTiter-Glo); type: cell-based; details: Ba/F3 EGFR-D770-N771ins_SVD, 72 hours
Procedure, shortened: (§2)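 Ba/F3 cells expressing either EGFR insertion mutant were seeded at 1,000 cells/well and dosed 24 h later at eight concentrations from 0 to 10 μM. After 72 h, viability was read by CellTiter-Glo ATP signal. IC50 (μM) was fitted from the eight-point curves.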

[2] = system: Ba/F3 EGFR V769_D770insASV; test: as above; type: cell-based; details: 72 hours
Procedure, shortened: as §2

[3] = system: Ba/F3 HER2 A775_G776insYVMA; test: Growth inhibition of Ba/F3 HER2 mutant cells (CellTiter-Glo); type: cell-based; details: Mus musculus, BaF3, 72 hours
Procedure, shortened: (§3)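 Ba/F3 cells carrying HER2 A775_G776insYVMA or G776delinsVC were seeded at 1,000 cells/well and dosed 24 h later at 0.01-10 μM (8 concentrations including 0). After 72 h, viability was read as cellular ATP by CellTiter-Glo luminescence, and IC50 values were calculated from the 8-point curves.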

Ba/F3 HER2 G776delinsVC = test: as above; type: cell-based; details: Mus musculus, BaF3, 72 hours
Procedure, shortened: as §3

Sequence of EGFR del19 (P00533 other isoform, or with tags, fused parts or gaps del 1-668/del 746-750 limits assumed): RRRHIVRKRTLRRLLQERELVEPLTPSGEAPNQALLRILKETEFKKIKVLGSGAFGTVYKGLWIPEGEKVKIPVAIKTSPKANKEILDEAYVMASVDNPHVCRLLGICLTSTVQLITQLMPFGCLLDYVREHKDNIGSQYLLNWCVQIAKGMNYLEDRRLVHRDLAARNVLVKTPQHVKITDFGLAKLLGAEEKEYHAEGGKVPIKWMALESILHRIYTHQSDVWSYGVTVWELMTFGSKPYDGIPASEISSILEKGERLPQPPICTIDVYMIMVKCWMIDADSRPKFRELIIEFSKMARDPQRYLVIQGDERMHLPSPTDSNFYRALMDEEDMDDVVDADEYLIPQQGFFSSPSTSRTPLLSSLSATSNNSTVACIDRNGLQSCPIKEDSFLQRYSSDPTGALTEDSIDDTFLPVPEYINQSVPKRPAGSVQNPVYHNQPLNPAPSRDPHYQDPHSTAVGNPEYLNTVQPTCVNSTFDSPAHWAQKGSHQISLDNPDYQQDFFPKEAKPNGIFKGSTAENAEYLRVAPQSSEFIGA

IC50 (EGFR del19) [µM]	IC50 (EGFR A763_Y764insFHEA) [µM]	IC50 (HER2 A775_G776insYVMA) [µM]	IC50 [1] [µM]	IC50 [2] [µM]	IC50 [3] [µM]	IC50 (Ba/F3 HER2 G776delinsVC) [µM]	Structure (SMILES)
0.003	0.019	0.374	0.03 to 0.05	0.03 to 0.05	> 0.1	< 0.01	C=CC(=O)Nc1cc(Nc2ncc(Cl)c(Nc3ccc(C)c(C)c3N(C)C(C)=O)n2)c(OC)cc1N(C)CCN(C)C [Example 83, N-(5-((5-chloro-4-((3,4-dimethyl-2-(N-methylacetamido)phenyl)amino)pyrimidin-2-yl)amino)-2-((2-(dimethylamino)ethyl)(methyl)amino)-4-methoxyphenyl)acrylamide]
0.001	0.003	0.052	0.03 to 0.05	0.03 to 0.05	> 0.1	< 0.01	C=CC(=O)Nc1cc(Nc2ncc(Cl)c(Nc3ccc(C)c(C)c3NC(C)=O)n2)c(OC)cc1N(C)CCN(C)C [Example 84, N-(5-((4-((2-acetamido-3,4-dimethylphenyl)amino)-5-chloropyrimidin-2-yl)amino)-2-((2-(dimethylamino)ethyl)(methyl)amino)-4-methoxyphenyl)acrylamide]
0.018	0.043	0.871	0.03 to 0.05	0.03 to 0.05	> 0.1	0.01 to 0.03	C=CC(=O)Nc1cc(Nc2ncc(Cl)c(Nc3cccc(C)c3N(C)C(C)=O)n2)c(OC)cc1N(C)CCN(C)C [Example 85, N-(5-((5-chloro-4-((3-methyl-2-(N-methylacetamido)phenyl)amino)pyrimidin-2-yl)amino)-2-((2-(dimethylamino)ethyl)(methyl)amino)-4-methoxyphenyl)acrylamide]
0.002	0.02	0.157	0.03 to 0.05	0.03 to 0.05	> 0.1	< 0.01	C=CC(=O)Nc1cc(Nc2ncc(Cl)c(Nc3cccc(C)c3NC(C)=O)n2)c(OC)cc1N(C)CCN(C)C [Example 86, N-(5-((4-((2-acetamido-3-methylphenyl)amino)-5-chloropyrimidin-2-yl)amino)-2-((2-(dimethylamino)ethyl)(methyl)amino)-4-methoxyphenyl)acrylamide]
0.004	0.024	0.107	0.03 to 0.05	0.03 to 0.05	> 0.1	< 0.01	C=CC(=O)Nc1cc(Nc2ncc(Cl)c(Nc3ccc(C)cc3N(C)C(C)=O)n2)c(OC)cc1N(C)CCN(C)C [Example 87, N-(5-((5-chloro-4-((4-methyl-2-(N-methylacetamido)phenyl)amino)pyrimidin-2-yl)amino)-2-((2-(dimethylamino)ethyl)(methyl)amino)-4-methoxyphenyl)acrylamide]
< 0.001	0.002	0.014	0.01 to 0.03	0.01 to 0.03	0.03 to 0.05	< 0.01	C=CC(=O)Nc1cc(Nc2ncc(Cl)c(Nc3ccc(C)cc3NC(C)=O)n2)c(OC)cc1N(C)CCN(C)C [Example 88, N-(5-((4-((2-acetamido-4-methylphenyl)amino)-5-chloropyrimidin-2-yl)amino)-2-((2-(dimethylamino)ethyl)(methyl)amino)-4-methoxyphenyl)acrylamide]
0.02	0.077	0.479	0.03 to 0.05	0.03 to 0.05	> 0.1	0.01 to 0.03	C=CC(=O)Nc1cc(Nc2ncc(Cl)c(Nc3ccccc3N(C)C(C)=O)n2)c(OC)cc1N(C)CCN(C)C [Example 89, N-(5-((5-chloro-4-((2-(N-methylacetamido)phenyl)amino)pyrimidin-2-yl)amino)-2-((2-(dimethylamino)ethyl)(methyl)amino)-4-methoxyphenyl)acrylamide]
0.001	0.007	0.037	0.03 to 0.05	0.03 to 0.05	> 0.1	< 0.01	C=CC(=O)Nc1cc(Nc2ncc(Cl)c(Nc3ccccc3NC(C)=O)n2)c(OC)cc1N(C)CCN(C)C [Example 90, N-(5-((4-((2-acetamidophenyl)amino)-5-chloropyrimidin-2-yl)amino)-2-((2-(dimethylamino)ethyl)(methyl)amino)-4-methoxyphenyl)acrylamide]
< 0.001	0.001	0.006	< 0.01	< 0.01	< 0.01	< 0.01	C=CC(=O)Nc1cc(Nc2ncc(Cl)c(Nc3cccc4c3N(C(C)=O)CC4)n2)c(OC)cc1N(C)CCN(C)C [Example 91, N-(5-((4-((1-acetylindolin-7-yl)amino)-5-chloropyrimidin-2-yl)amino)-2-((2-(dimethylamino)ethyl)(methyl)amino)-4-methoxyphenyl)acrylamide]
< 0.001	0.001	0.005	0.01 to 0.03	0.01 to 0.03	0.03 to 0.05	< 0.01	C=CC(=O)Nc1cc(Nc2ncc(Cl)c(Nc3cccc4c3N(C(C)=O)CC4)n2)c(OC)cc1N(C)CCNC [Example 92, N-(5-((4-((1-acetylindolin-7-yl)amino)-5-chloropyrimidin-2-yl)amino)-4-methoxy-2-(methyl(2-(methylamino)ethyl)amino)phenyl)acrylamide]
0.001	0.002	0.011	0.01 to 0.03	0.01 to 0.03	0.01 to 0.03	< 0.01	C=CC(=O)Nc1cc(Nc2ncc(Cl)c(Nc3cccc4c3N(C(=O)CC)CC4)n2)c(OC)cc1N(C)CCN(C)C [Example 93, N-(5-((5-chloro-4-((1-propionylindolin-7-yl)amino)pyrimidin-2-yl)amino)-2-((2-(dimethylamino)ethyl)(methyl)amino)-4-methoxyphenyl)acrylamide]
0.004	0.022	0.292	0.01 to 0.03	0.01 to 0.03	> 0.1	< 0.01	C=CC(=O)Nc1cc(Nc2ncc(Cl)c(Nc3cccc4c3N(C(=O)CC)CCC4)n2)c(OC)cc1N(C)CCN(C)C [Example 94, N-(5-((5-chloro-4-((1-propionyl-1,2,3,4-tetrahydroquinolin-8-yl)amino)pyrimidin-2-yl)amino)-2-((2-(dimethylamino)ethyl)(methyl)amino)-4-methoxyphenyl)acrylamide]
0.002	0.011	0.054	0.01 to 0.03	0.01 to 0.03	0.03 to 0.05	< 0.01	C=CC(=O)Nc1cc(Nc2ncc(Cl)c(Nc3cccc4c3N(C(C)=O)CCC4)n2)c(OC)cc1N(C)CCN(C)C [Example 95, N-(5-((4-((1-acetyl-1,2,3,4-tetrahydroquinolin-8-yl)amino)-5-chloropyrimidin-2-yl)amino)-2-((2-(dimethylamino)ethyl)(methyl)amino)-4-methoxyphenyl)acrylamide]
0.001	0.01	0.087	< 0.01	< 0.01	> 0.1	< 0.01	CC#CC(=O)Nc1cc(Nc2ncc(Cl)c(Nc3cccc4c3N(S(C)(=O)=O)CC4)n2)c(OC)cc1N(C)CCN(C)C [Example 96, N-(5-((5-chloro-4-((1-(methylsulfonyl)indolin-7-yl)amino)pyrimidin-2-yl)amino)-2-((2-(dimethylamino)ethyl)(methyl)amino)-4-methoxyphenyl) but-2-inamide]
0.015	0.28	0.258	0.01 to 0.03	0.01 to 0.03	> 0.1	< 0.01	CC#CC(=O)Nc1cc(Nc2ncc(Cl)c(Nc3cccc4c3N(C(C)=O)CC4)n2)c(OC)cc1N(C)CCN(C)C [Example 97, N-(5-((4-((1-acetylindolin-7-yl)amino)-5-chloropyrimidin-2-yl)amino)-2-((2-(dimethylamino)ethyl)(methyl)amino)-4-methoxyphenyl) but-2-inamide]
< 0.001	0.009	0.053	0.01 to 0.03	0.01 to 0.03	> 0.1	< 0.01	CC#CC(=O)Nc1cc(Nc2ncc(Cl)c(Nc3ccc(C)cc3N(C)S(C)(=O)=O)n2)c(OC)cc1N(C)CCN(C)C [Example 98, N-(5-((5-chloro-4-((4-methyl-2-(N-methylmethylsulfonamido)phenyl)amino)pyrimidin-2-yl)amino)-2-((2-(dimethylamino)ethyl)(methyl)amino)-4-methoxyphenyl) but-2-inamide]
